From US5562894A, “Amino-acyl-type and catecholamine-type contrast agents for MRI” (Regents of the University of California, priority 1993, dated 1996)

Key:
[1] = system: liver transport system or systems inhibitable by BSP; details: cited from earlier work
[2] = T1-weighted spin-echo, 0.5 Tesla; cited from earlier work
[3] = rat, in vivo, 6 h; cited from earlier work
[4] = in vivo; cited from earlier work
[5] = In vivo MRI, % enhancement by region of interest (Example 19); design: species or system Sprague-Dawley rats
Description: Magnetic resonance imaging was carried out using a CSI 2-Tesla imager (GE, Inc., Fremont, Calif.) equipped with a 5-cm diameter distributed-capacitance imaging coil. A T1-weighted (TR 300/TE 6; NEX 4) spin-echo sequence was used.
Sprague-Dawley rats (250-350 g; n=4 for each contrast agent) were anesthetized with ketamine (90 mg/kg) and diazepam (10 mg/kg) and fitted with an intravenous catheter in a lateral tail vein. Anesthesia was maintained during imaging using pentobarbital delivered via an intraperitoneal catheter.
The anesthetized animal was placed in the imaging coil and secured with tape. The coil containing the animal then was placed in the magnet bore, and the magnetic field was shimmed. Pre-contrast images were obtained. The contrast agent (100 μmol/kg) then was injected via the tail-vein catheter, and additional images were obtained at various intervals for up to 90 min post injection.
Contrast agent enhancement was determined by measuring the mean signal intensity (SI) in operator-designated regions of interest (ROI). These were normalized to the pre-injection value for each ROI according to the following formula:
% Enhancement=100×(SIpost -SIpre)/SIpre

[6] = format: in vitro ADME, rat
Description: (§1) Aliquots were withdrawn at various time intervals and examined by HPLC [PRP-1 column; water-acetonitrile gradient; 25 mM ammonium formate, pH 7 mobile phase].

[7] = Hydrolysis of the esters in pH 7.4 HEPES buffer; format: physicochemical; details: pH 7.4, 25° C., each step
Description: as §1

[8] = T1-weighted spin-echo MRI of a rat, region-of-interest % enhancement (Examples 8 and 9); format: in vivo, Sprague-Dawley rat
Description: FIG. 5 is a photograph of T1-weighted magnetic resonance images of a rat obtained before, and at 0, 5, 10, 15, 25, 45 and 60 minutes after the injection of Gd-DTPA-bis(phenylalanine) at a dose of 0.1 mmol/kg body weight. The images are 60 mm×60 mm×3 mm thick slices in the coronal plane. The region covered extends from just above the heart to somewhat below the liver. Imaging parameters are indicated along the left of the Figure and include the repetition time ([…]), echo time (6000 microseconds), number of signal averages (4), and the image matrix size (128×256).
FIGS. 6A and 6B are photographs of T1-weighted magnetic resonance images obtained as described in FIG. 5A and 5B, except that Gd-DTPA-bis(phenylalanine ethyl ester) was used as the contrast agent.
A 300-g male Sprague-Dawley rat was anesthetized with an intraperitoneal injection of a mixture of ketamine and diazepam, and a catheter was inserted into a lateral tail vein. The rat was then placed in a 5-cm inside diameter (i.d.) imaging coil in the bore of a 2-Tesla imager-spectrometer system (GE CSI; General Electric Co., Fremont, Calif.). A T1-weighted spin-echo image of the animal's abdomen in the coronal plane was then obtained (TR 300 ms; Te 6 ms; 128-256 image matrix; NEX=4; 3 mm slice thickness). Next, 0.6 g of the Gd-DTPA-bis(phenylalanine) solution described in Example 7 was injected via the catheter. A series of post-injection images were obtained. […] See also, FIGS. 5A and 5B.
The imaging was carried out analogously to Example 8. […] See also, FIGS. 6A and 6B.

[9] = Comparative MRI of two preparations of Gd-DTPA-bis(phenylalanine ethyl ester) (Example 11); format: in vivo, mice
Description: FIG. 8 is a photograph of T1-weighted magnetic resonance images obtained as in FIG. 6, except that a different preparation of Gd-DTPA-bis(phenylalanine ethyl ester) (sometimes abbreviated Gd-DTPA-(PheOEt)2) was used.
Freshly prepared material, whose pH was carefully adjusted to neutrality, and which was stored in the cold, was determined to be about 90% Gd-DTPA-(PheOEt)2, the remainder being mostly Gd-DTPA-(PheOEt) (Phe).

[10] = more pure preparation (about 90% bis ester)
[11] = partially hydrolyzed material of FIG. 6 (ca. 45% bis ester)

Q: With `O=C([O-])C(NCCNC(C(=O)[O-])c1ccccc1[O-])c1ccccc1[O-].[Fe+3]` (stereo not shown) [Fe-EHPG] as the molecule, how does the “liver transport (in words)” value [1] read?
A: The value was “transported in the liver by a system or systems inhibitable by BSP”.

Q: With `CC(=O)N([O-])CCCCCNC(=O)CCC(=O)N([O-])CCCCCNC(=O)CCC(=O)N([O-])CCCCCNC(=O)CC(CC(=O)[O-])c1ccccc1.[Fe+3].[H+]` (stereo not shown) [Fe-PGDF] as the molecule, how does the “liver transport (in words)” value [1] read?
A: The value was “transported in the liver by a system or systems inhibitable by BSP”.

Q: For `O=C([O-])CN(CCN(CC(=O)[O-])CC(=O)[O-])CCN(CC(=O)[O-])C(COCc1ccccc1)C(=O)[O-].[Gd+3]` (stereo not shown) [Gd-BOPTA], which “signal enhancement in liver” value [2] is on record?
A: The value was 48%.

Q: And the biliary excretion [3]?
A: Its biliary excretion is 38.6 % of injected dose.

Q: What does the source list for `CNC[C@H](O)[C@@H](O)[C@H](O)[C@H](O)CO.CNC[C@H](O)[C@@H](O)[C@H](O)[C@H](O)CO.O=C([O-])CN(CCN(CC(=O)[O-])CC(=O)O)CCN(CC(=O)[O-])CC(=O)O.[Gd+3]` [Gd-DTPA, gadolinium (III) complex of diethylenetriaminepentaacetic acid]?
A: signal enhancement in liver [2]: 16%; distribution (in words) [4]: distributes in blood plasma and extracellular fluid

Q: With `COc1ccc(CCNC(=O)CN(CCN(CCN(CC(=O)[O-])CC(=O)NCCc2ccc(OC)c(OC)c2)CC(=O)[O-])CC(=O)[O-])cc1OC.[Gd+3]` [Gd-DTPA-(3,4-DMPE)2] as the molecule, how does the lung enhancement ([5]; 100 μmol/kg i.v., n=4) read?
A: The lung enhancement was 141%±4%.

Q: What about the “enhancement of organs (in words)” value ([5]; MRI of rats) of the same molecule?
A: The value was “useful enhancement of heart, lungs, kidney and liver”.

Q: Which results are given for `CCOC(=O)[C@@H](Cc1ccccc1)NC(=O)CN(CCN(CCN(CC(=O)[O-])CC(=O)N[C@H](Cc1ccccc1)C(=O)OCC)CC(=O)[O-])CC(=O)[O-].[Gd+3]` [Gd-DTPA-(D-PheOEt)2, Gd(III)-DTPA-bis(D-phenylalanine ethyl ester)]?
A: ester hydrolysis in rat plasma (in words) [6]: resistant to even the first step of ester hydrolysis; t1/2 of ester hydrolysis in rat plasma [6]: None Detected; half-time of hydrolysis in aqueous buffer [7]: of the order of days

Q: What does the source list for `CCOC(=O)[C@H](Cc1ccccc1)NC(=O)CN(CCN(CCN(CC(=O)[O-])CC(=O)N[C@@H](Cc1ccccc1)C(=O)OCC)CC(=O)[O-])CC(=O)[O-].[Gd+3]` [Gd-DTPA-bis(phenylalanine ethyl ester), Gd(III)-DTPA-bis(L-phenylalanine ethyl ester)]?
A: image enhancement (in words) ([8]; 2 Tesla, about 0.1 mmol/kg): different apparent enhancement in the liver and heart; image region-of-interest % enhancement ([8]; heart, 0-3 min post-injection): 86%; image region-of-interest % enhancement ([8]; heart, 5-8 min post-injection): 46%; image region-of-interest % enhancement ([8]; heart, 15-18 min post-injection): 66%; image region-of-interest % enhancement ([8]; heart, 25-38 min post-injection): 48%; image region-of-interest % enhancement ([8]; heart, 45-48 min post-injection): 49%; image region-of-interest % enhancement ([8]; heart, 60-63 min post-injection): 25%; image region-of-interest % enhancement ([8]; liver, 0-3 min post-injection): 70%; image region-of-interest % enhancement ([8]; liver, 5-8 min post-injection): 109%; image region-of-interest % enhancement ([8]; liver, 15-18 min post-injection): 113%; image region-of-interest % enhancement ([8]; liver, 25-38 min post-injection): 99%; image region-of-interest % enhancement ([8]; liver, 45-48 min post-injection): 71%; image region-of-interest % enhancement ([8]; liver, 60-63 min post-injection): 44%; image region-of-interest % enhancement ([8]; muscle (Table 3: skeletal muscle), 0-3 min post-injection): 50%; image region-of-interest % enhancement ([8]; muscle (Table 3: skeletal muscle), 5-8 min post-injection): 30%; image region-of-interest % enhancement ([8]; muscle (Table 3: skeletal muscle), 15-18 min post-injection): 31%; image region-of-interest % enhancement ([8]; muscle (Table 3: skeletal muscle), 25-38 min post-injection): 26%; image region-of-interest % enhancement ([8]; muscle (Table 3: skeletal muscle), 45-48 min post-injection): 16%; image region-of-interest % enhancement ([8]; muscle (Table 3: skeletal muscle), 60-63 min post-injection): 16%; heart enhancement [9, 10]: 74%; liver enhancement [9, 10]: 163%; factor by which degree of liver enhancement was greater ([9]; more pure preparation vs FIG. 6 material): about three; heart enhancement [9, 11]: 84%; liver enhancement [9, 11]: 53%; ester hydrolysis in rat plasma (in words) [6]: very rapidly hydrolyzed in rat plasma; half-time of hydrolysis in aqueous buffer [7]: of the order of days
